Molecules are shown by their SMILES.

EC50 data for 50 molecules are collected here from patent publication EP4001279A1, “NOVEL SPIROPYRROLIDINE DERIVED ANTIVIRAL AGENTS” (Enanta Pharmaceuticals, Inc., priority 2020, dated 2022).

This experiment concerns 229E human corona virus (hCoV). As to the kind of experiment: 229E live virus assay (CPE, ATPlite readout in MRC-5 cells). Type of experiment: cell-based, hCoV-229E. The note with it: Human coronavirus 229E, MRC5, hCoV-229E live virus, MOI 0.05, ATPlite readout, run in duplicate.
In the case of `CC(C)C[C@@H](C(=O)N1C[C@]2(C[C@H]1C#N)C(=O)Nc1ccccc12)N(C)C(=O)c1ccc(OC2CC2)c(-c2cccnc2)c1` [Example 343], the EC50 lay within 100 to 1000 nM.
In the case of `CC(C)C[C@@H](C(=O)N1C[C@]2(C[C@H]1C#N)C(=O)Nc1ccccc12)N(C)C(=O)c1ccc2nc(N)sc2c1` [Example 225] it was 100 to 1000 nM; in that of `COc1cccc2[nH]c(C(=O)N[C@@H](CC(C)C)C(=O)N3C[C@]4(C[C@H]3C(O)S(=O)(=O)O)C(=O)Nc3ccccc34)cc12` (some centres unmarked) [Example 29], under 100 nM.
For `CC(C)(C)C[C@H](NC(=O)Nc1ccc(F)cc1)C(=O)N1C[C@]2(C[C@H]1C#N)C(=O)Nc1ccccc12` [Example 441] the value was under 100 nM; for `CC(C)C[C@@H](C(=O)N1C[C@]2(C[C@H]1C#N)C(=O)Nc1ccccc12)N(C)C(=O)[C@H]1CCN(C(=O)OC(C)(C)C)C1` [Example 344], 100 to 1000 nM.
`COc1cccc2[nH]c(C(=O)N[C@H](CC3CCCCC3)C(=O)N3C[C@]4(C[C@H]3C#N)C(=O)Nc3ccccc34)cc12` [Example 14] registered an EC50 of under 100 nM.
For `CC(C)(C)C[C@H](NC(=O)c1cn(C2CC2)nn1)C(=O)N1C[C@]2(C[C@H]1C#N)C(=O)Nc1ccccc12` [Example 141] the value was under 100 nM.
With `C=CCN(C(=O)OCc1ccccc1)[C@@H](CC(C)C)C(=O)N1C[C@]2(C[C@H]1C#N)C(=O)Nc1ccccc12` [Example 96], the EC50 was 100 to 1000 nM.
In the case of `CC(C)C[C@@H](C(=O)N1C[C@]2(C[C@H]1C#N)C(=O)Nc1ccccc12)N(C)C(=O)C#Cc1ccccc1` [Example 248] it was under 100 nM; in that of `CC(C)C[C@@H](C(=O)N1C[C@]2(C[C@H]1C#N)C(=O)Nc1ccccc12)N(C)C(=O)c1cc2c(C3CC3)cccc2[nH]1` [Example 45], under 100 nM; in that of `CC(C)C[C@@H](C(=O)N1C[C@]2(C[C@H]1C#N)C(=O)Nc1ccccc12)N(C)C(=O)c1cncc(C(F)(F)F)c1` [Example 195], under 100 nM.
For `[2H]C([2H])([2H])N(C(=O)c1cn(C2CC2)nn1)[C@@H](CC(C)(C)C)C(=O)N1C[C@]2(C[C@H]1C#N)C(=O)Nc1ccccc12` [Example 378] the value was under 100 nM; for `CN(C(=O)c1cc2c(F)cc(F)cc2[nH]1)[C@@H](CC1CCC1)C(=O)N1C[C@]2(C[C@H]1C#N)C(=O)Nc1ccccc12` [Example 91], under 100 nM; for `[2H]C([2H])([2H])N(C(=O)c1cc2c(F)cc(F)cc2[nH]1)[C@@H](CC(C)(C)F)C(=O)N1C[C@]2(C[C@H]1C#N)C(=O)Nc1cc(C(F)(F)F)ccc12` [Example 472, N-((S)-1-((3R,5'S)-5'-cyano-2-oxo-6-(trifluoromethyl)spiro[indoline-3,3'-pyrrolidin]-1-yl)-4-fluoro-4-methyl-1-oxopentan-2-yl)-4,6-difluoro-N-(methyl-d3)-1H-indole-2-carboxamide], under 100 nM.
For `CN(C(=O)c1cc2c(OC3CC3)cccc2[nH]1)[C@@H](CC(C)(C)C)C(=O)N1C[C@]2(C[C@H]1C#N)C(=O)Nc1ccccc12` [Example 375] the value was under 100 nM; for `CC(C)C[C@@H](C(=O)N1C[C@]2(C[C@H]1C#N)C(=O)Nc1ccccc12)N(C)C(=O)c1ccc2ccsc2c1` [Example 246], under 100 nM; for `N#C[C@@H]1C[C@@]2(CN1C(=O)[C@H](CC1CC1)NC(=O)OCc1ccc(F)cc1F)C(=O)Nc1ccc(Cl)cc12` [Example 493], 100 to 1000 nM.
`N#C[C@@H]1C[C@@]2(CN1C(=O)[C@H](Cc1ccccc1F)NC(=O)c1cc3c(F)cc(F)cc3[nH]1)C(=O)Nc1ccc(Cl)cc12` [Example 451] registered a concentration for a half-maximal effect (EC50) of 100 to 1000 nM.
`CC(C)C[C@H](NC(=O)c1cc2c(F)cccc2[nH]1)C(=O)N1C[C@]2(C[C@H]1C#N)C(=O)Nc1c(F)cccc12` [Example 28] came in with an EC50 of under 100 nM.
Turning to `CC(C)C[C@@H](C(=O)N1C[C@]2(C[C@H]1C#N)C(=O)Nc1ccccc12)N(C)C(=O)c1ccc2cnn(C)c2c1` [Example 224], the 50% effective concentration (EC50) is under 100 nM.
In the case of `COc1cccc2[nH]c(C(=O)N[C@@H](CC3CCCCC3)C(=O)N3C[C@]4(C[C@H]3C#N)C(=O)Nc3ccccc34)cc12` [Example 13] it was under 100 nM.
In the case of `Cc1cc2cc(C(=O)N(C)[C@@H](CC(C)C)C(=O)N3C[C@]4(C[C@H]3C#N)C(=O)Nc3ccccc34)cc(OC3CC3)c2nc1C` [Example 323] it was 100 to 1000 nM; in that of `CC(C)C[C@@H](C(=O)N1C[C@]2(C[C@H]1C#N)C(=O)Nc1ccccc12)N(C)C(=O)c1sc2cc(F)ccc2c1Cl` [Example 43], under 100 nM; in that of `CC(C)(F)C[C@H](NC(=O)c1cc2c(F)cc(F)cc2[nH]1)C(=O)N1C[C@]2(C[C@H]1C#N)C(=O)Nc1ccc(Cl)cc12` [Example 123], under 100 nM.
In the case of `COc1ccc(C(=O)N(C)[C@@H](CC(C)C)C(=O)N2C[C@]3(C[C@H]2C#N)C(=O)Nc2ccccc23)cc1F` [Example 182] it was under 100 nM; in that of `COc1ccnc(C(=O)N(C)[C@@H](CC(C)C)C(=O)N2C[C@]3(C[C@H]2C#N)C(=O)Nc2ccccc23)c1` [Example 192], under 100 nM.
Molecule `N#C[C@@H]1C[C@@]2(CN1C(=O)[C@H](CC1CC1)NC(=O)OCc1c(F)cccc1F)C(=O)Nc1ccc(Cl)cc12` [Example 492, 2,6-difluorobenzyl ((S)-1-((3R,5'S)-5-chloro-5'-cyano-2-oxospiro[indoline-3,3'-pyrrolidin]-1'-yl)-3-cyclopropyl-1-oxopropan-2-yl)carbamate] had an EC50 of 100 to 1000 nM.
As for `CC(C)C[C@@H](C(=O)N1C[C@]2(C[C@H]1C(=O)C(=O)NC1CCCCC1)C(=O)Nc1ccccc12)N(C)C(=O)c1cc2c(F)cccc2[nH]1` [Example 35], the EC50 was over 1000 nM.
`Cc1cc(F)c(C(=O)N(C)[C@@H](CC(C)C)C(=O)N2C[C@]3(C[C@H]2C#N)C(=O)Nc2ccccc23)cc1-c1cnn(C2CC2)c1` [Example 342] showed an EC50 of 100 to 1000 nM.
For `Cc1cc2cc(C(=O)N[C@@H](CC(C)(C)C)C(=O)N3C[C@]4(C[C@H]3C#N)C(=O)Nc3ccccc34)cc(Cl)c2nc1C` [Example 147] the value was under 100 nM; for `CC(C)C[C@@H](C(=O)N1C[C@]2(C[C@H]1C#N)C(=O)Nc1ccccc12)N(C)C(=O)c1n[nH]c(-c2ccccc2)n1` [Example 288], under 100 nM.
For `N#C[C@@H]1C[C@@]2(CN1C(=O)[C@H](COCc1cnn[nH]1)NC(=O)c1cc3c(F)cc(F)cc3[nH]1)C(=O)Nc1ccccc12` [Example 129] the value was over 1000 nM; for `CC(C)C[C@@H](C(=O)N1C[C@]2(C[C@H]1C#N)C(=O)Nc1ccccc12)N(C)C(=O)c1cccc(-c2ccccc2F)c1` [Example 264], under 100 nM; for `CC(C)C[C@@H](C(=O)N1C[C@]2(C[C@H]1C#N)C(=O)Nc1ccccc12)N(C)C(=O)c1cncc(C#N)c1` [Example 60], 100 to 1000 nM.
`COc1ccc(Cl)cc1C(=O)N(C)[C@@H](CC(C)C)C(=O)N1C[C@]2(C[C@H]1C#N)C(=O)Nc1ccccc12` [Example 170] had an EC50 of under 100 nM.
As for `CC(C)C[C@@H](C(=O)N1C[C@]2(C[C@H]1C#N)C(=O)Nc1ccccc12)N(C)C(=O)c1cccc(N)n1` [Example 199], the EC50 is under 100 nM.
In the case of `CC(C)C[C@@H](C(=O)N1C[C@]2(C[C@H]1C(O)S(=O)(=O)O)C(=O)Nc1ccccc12)N(C)C(=O)c1cc2c(F)cccc2[nH]1` (some centres unmarked) [Example 30] it was under 100 nM; in that of `CC(C)C[C@@H](C(=O)N1C[C@]2(C[C@H]1C#N)C(=O)Nc1ccccc12)N(C)C(=O)c1cccc(Cl)c1` [Example 167], under 100 nM; in that of `CC(C)(C)C[C@H](NC(=O)c1cn(CC(F)(F)F)nn1)C(=O)N1C[C@]2(C[C@H]1C#N)C(=O)Nc1ccccc12` [Example 143], under 100 nM.
In the case of `CC(C)C[C@@H](C(=O)N1C[C@]2(C[C@H]1C#N)C(=O)Nc1ccccc12)N(C)C(=O)c1cc(OC2CC2)n2nc(C3CC3)c(C(=O)C(F)(F)F)c2c1` [Example 313] it was over 1000 nM; in that of `CC(C)C[C@@H](C(=O)N1C[C@]2(C[C@H]1C#N)C(=O)Nc1ccccc12)N(C)C(=O)c1ccc(F)c(C(F)(F)F)c1` [Example 177], under 100 nM; in that of `Cc1cnc2ccc(C(=O)N[C@@H](CC(C)(C)C)C(=O)N3C[C@]4(C[C@H]3C#N)C(=O)Nc3ccccc34)cc2c1` [Example 135], under 100 nM.
In the case of `CC(C)C[C@@H](C(=O)N1C[C@]2(C[C@H]1C#N)C(=O)Nc1ccccc12)N(C)C(=O)c1nnc(-c2ccc(F)cc2)o1` [Example 355] it was under 100 nM; in that of `C=C(C)c1ccc2c(c1)[C@@]1(C[C@@H](C#N)N(C(=O)[C@H](CC(C)C)N(C)C(=O)c3cc4c(F)cc(F)cc4[nH]3)C1)C(=O)N2` [Example 498, N-((S)-1-((3R,5'S)-5'-cyano-2-oxo-5-(prop-1-en-2-yl)spiro[indoline-3,3'-pyrrolidin]-1'-yl)-4-methyl-1-oxopentan-2-yl)-4,6-difluoro-N-methyl-1H-indole-2-carboxamide], under 100 nM.
In turn, `CN(C(=O)c1cc2c(F)cc(F)cc2[nH]1)[C@@H](CC1CC1)C(=O)N1C[C@]2(C[C@H]1C#N)C(=O)Nc1ccccc12` [Example 115] registered an EC50 of under 100 nM.
Turning to `CC(C)C[C@@H](C(=O)N1C[C@]2(C[C@H]1C#N)C(=O)Nc1ccccc12)N(C)C(=O)[C@@H](c1cn(C)nn1)C(C)C` [Example 350], the half-maximal effective concentration (EC50) is 100 to 1000 nM.
In the case of `CC(C)C[C@@H](C(=O)N1C[C@]2(C[C@H]1C#N)C(=O)Nc1ccccc12)N(C)C(=O)c1nnc(C2CC2)o1` [Example 354] it was under 100 nM; in that of `CC(C)C[C@@H](C(=O)N1C[C@]2(C[C@H]1C#N)C(=O)Nc1ccccc12)N(C)C(=O)c1c(Cl)cccc1Cl` [Example 64], over 1000 nM; in that of `COc1cccc2[nH]c(C(=O)N(C)[C@@H](CC(C)C)C(=O)N3C[C@]4(C[C@H]3C(=O)C(=O)NC3CCCCC3)C(=O)Nc3ccccc34)cc12` [Example 34], over 1000 nM.
For `CC(C)C[C@@H](C(=O)N1C[C@]2(C[C@H]1C(=O)O)C(=O)Nc1ccc(Cl)cc12)N(C)C(=O)c1cc2c(F)cc(F)cc2[nH]1` [Example 497, (3R,5'S)-5-chloro-1'-(N-(4,6-difluoro-1H-indole-2-carbonyl)-N-methyl-L-leucyl)-2-oxospiro[indoline-3,3'-pyrrolidine]-5'-carboxylic acid], the EC50 was over 1000 nM.
